27 compounds from patent publication US20250025443A1, “COMPOUNDS AND METHODS FOR TREATING CORONA VIRUSES” (CLEAR CREEK BIO, INC., priority 2021, published 2025) can be followed below.

A word on the IC50: it is the midpoint of a concentration-inhibition curve.

The first experiment has as its target SARS-CoV-2 Papain-Like Protease (PLpro) (Severe acute respiratory syndrome coronavirus 2 (2019-nCoV) (SARS-CoV-2), UniProt P0DTD1). In words: biochemical. To be noted: PLpro IC50, SARS-CoV-2 PLpro enzymatic fluorescence assay.
As for `Cc1ccc(C2=CCNCC2)cc1C(=O)NC1(c2cccc3ccccc23)CC1` [Compound 399, 2-Methyl-N-(1-(naphthalen-1-yl)cyclopropyl)-5-(1,2,3,6-tetrahydropyridin-4-yl)benzamide], the IC50 is < 100 nM.

Still in this experiment, the particulars now being: SARS-CoV-2 PLpro enzymatic fluorescence assay; read-out: PLpro IC50.
In the case of `Cc1ccc(OC[C@@H]2CCCN2)cc1C(=O)NC1(c2cccc3ncccc23)CC1` [Compound 380, (S)-2-Methyl-5-(pyrrolidin-2-ylmethoxy)-N-(1-(quinolin-5-yl)cyclopropyl)benzamide], the concentration for half-maximal inhibition (IC50) is < 100 nM.
The same measure, in the same setting: with `Cc1ccc(OC[C@@H]2CCN2)cc1C(=O)NC1(c2cccc3ncccc23)CC1` [Compound 381, (S)-5-(Azetidin-2-ylmethoxy)-2-methyl-N-(1-(quinolin-5-yl)cyclopropyl)benzamide] the figure was < 100 nM; with `Cc1ccc(OC[C@H]2CCCN2C)cc1C(=O)NC1(c2cccc3ncccc23)CC1` [Compound 382, (R)-2-Methyl-5-((1-methylpyrrolidin-2-yl)methoxy)-N-(1-(quinolin-5-yl)cyclopropyl)benzamide], < 100 nM.
In the case of `Cc1ccc(OC[C@H]2CCN2)cc1C(=O)NC1(c2cccc3ncccc23)CC1` [Compound 383, (R)-5-(Azetidin-2-ylmethoxy)-2-methyl-N-(1-(quinolin-5-yl)cyclopropyl)benzamide], the half-maximal inhibitory concentration (IC50) is < 100 nM.
On to `COc1cc(C2(NC(=O)c3cc(OCC4CCN4C)ccc3C)CC2)c2ccccc2c1` (stereo not drawn) [Compound 384, N-(1-(3-methoxynaphthalen-1-yl)cyclopropyl)-2-methyl-5-((1-methylazetidin-2-yl)methoxy)benzamide], for which the IC50 is < 100 nM.
On the same count and under the same terms, the result for `CNCCOc1ccc(C)c(C(=O)NC2(c3cccc4ncccc34)CC2)c1` [Compound 385, 2-Methyl-5-(2-(methylamino)ethoxy)-N-(1-(quinolin-5-yl)cyclopropyl)benzamide] reads < 100 nM; that for `Cc1ccc(OCC2CCN2C)cc1C(=O)N[C@@H](c1cccc2ccccc12)C(F)(F)F` (stereo partly drawn) [Compound 386, 2-Methyl-5-((1-methylazetidin-2-yl)methoxy)-N-((S)-2,2,2-trifluoro-1-(naphthalen-1-yl)ethyl)benzamide], < 100 nM; that for `Cc1ccc(OCC2CCN2C)cc1C(=O)NC1(c2cccc3ccccc23)COC1` (stereo not drawn) [Compound 387, 2-Methyl-5-((1-methylazetidin-2-yl)methoxy)-N-(3-(naphthalen-1-yl)oxetan-3-yl)benzamide], < 100 nM.
On the same count and under the same terms, the result for `Cc1ccc(OCCN(C)C)cc1C(=O)NC1(c2cccc3cccnc23)CC1` [Compound 388, 5-(2-(Dimethylamino)ethoxy)-2-methyl-N-(1-(quinolin-8-yl)cyclopropyl)benzamide] reads < 100 nM.
On to `Cc1ccc(OC[C@@H]2CCN2C)cc1C(=O)NC1(c2cccc3cc(F)ccc23)CC1` [Compound 389, (S)-N-(1-(6-Fluoronaphthalen-1-yl)cyclopropyl)-2-methyl-5-((1-methylazetidin-2-yl)methoxy)benzamide], for which the 50% inhibitory concentration (IC50) is < 100 nM.
Still for that read-out and setting: the result for `Cc1ccc(OC[C@H]2CCN2C)cc1C(=O)NC1(c2cccc3ncccc23)CC1` [Compound 390, (R)-2-Methyl-5-((1-methylazetidin-2-yl)methoxy)-N-(1-(quinolin-5-yl)cyclopropyl)benzamide] reads < 100 nM.
Same read-out and setting: the result for `Cc1ccc(OC[C@@H]2CCN2C)cc1C(=O)NC1(c2cccc3ncccc23)CC1` [Compound 391, (S)-2-Methyl-5-((1-methylazetidin-2-yl)methoxy)-N-(1-(quinolin-5-yl)cyclopropyl)benzamide] reads < 100 nM.
On the same count and under the same terms, the result for `Cc1ccc(OC[C@@H]2CCN2)cc1C(=O)NC1(c2cccc3cc(F)ccc23)CC1` [Compound 392, (S)-5-(Azetidin-2-ylmethoxy)-N-(1-(6-fluoronaphthalen-1-yl)cyclopropyl)-2-methylbenzamide] reads < 100 nM; that for `Cc1ccc(OCCN(C)C)cc1C(=O)NC1(c2cn(-c3ccccc3)c3ccccc23)CC1` [Compound 395, 5-(2-(Dimethylamino)ethoxy)-2-methyl-N-(1-(1-phenyl-1H-indol-3-yl)cyclopropyl)benzamide], < 100 nM; that for `Cc1ccc(OCC2CCN2CC(F)(F)F)cc1C(=O)NC1(c2cccc3ccccc23)CC1` (stereo not drawn) [Compound 396, 2-Methyl-N-(1-(naphthalen-1-yl)cyclopropyl)-5-((1-(2,2,2-trifluoroethyl)azetidin-2-yl)methoxy)benzamide], 1000 to 5000 nM.
For `CCCC1COc2cc(C(=O)NC3(c4cccc5ccccc45)CC3)c(C)cc21` (stereo not drawn) [Compound 397, 5-Methyl-N-(1-(naphthalen-1-yl)cyclopropyl)-3-propyl-2,3-dihydrobenzofuran-6-carboxamide], the concentration for half-maximal inhibition (IC50) lay within 100 to 1000 nM.
Take `Cc1ccc(C2=CCNC2)cc1C(=O)NC1(c2cccc3ccccc23)CC1` [Compound 398, 5-(2,5-Dihydro-1H-pyrrol-3-yl)-2-methyl-N-(1-(naphthalen-1-yl)cyclopropyl)benzamide]: the IC50 was < 100 nM.
The same measure, in the same setting: the result for `COCC(N)COc1ccc(C)c(C(=O)NC2(c3cccc4ccccc34)CC2)c1` (stereo not drawn) [Compound 400, 5-(2-Amino-3-methoxypropoxy)-2-methyl-N-(1-(naphthalen-1-yl)cyclopropyl)benzamide] reads < 100 nM.
With `Cc1cc(C2(NC(=O)c3cc(OCCN(C)C)ccc3C)CC2)c2ccccc2c1` [Compound 401, 5-(2-(Dimethylamino)ethoxy)-2-methyl-N-(1-(3-methylnaphthalen-1-yl)cyclopropyl)benzamide], the IC50 was < 100 nM.
On the same count and under the same terms, with `Cc1ccc(OCC2CCN2C)cc1C(=O)NC1(c2cccc3cnccc23)CC1` (stereo not drawn) [Compound 402, N-(1-(Isoquinolin-5-yl)cyclopropyl)-2-methyl-5-((1-methylazetidin-2-yl)methoxy)benzamide] the figure was < 100 nM.
Still for that read-out and setting: the result for `Cc1nc2cccc(C3(NC(=O)c4cc(OCCN(C)C)ccc4C)CC3)c2s1` [Compound 403, 5-(2-(Dimethylamino)ethoxy)-2-methyl-N-(1-(2-methylbenzo[d]thiazol-7-yl)cyclopropyl)benzamide] reads 100 to 1000 nM; that for `Cc1ccc(OCC2(C)CCN2C)cc1C(=O)NC1(c2cccc3ccccc23)CC1` (stereo not drawn) [Compound 404, 5-((1,2-Dimethylazetidin-2-yl)methoxy)-2-methyl-N-(1-(naphthalen-1-yl)cyclopropyl)benzamide], < 100 nM; that for `Cc1cc(C)c(C(=O)NC2(c3cccc4ccccc34)CC2)cc1OCCN(C)C` [Compound 405, 5-(2-(Dimethylamino)ethoxy)-2,4-dimethyl-N-(1-(naphthalen-1-yl)cyclopropyl)benzamide], < 100 nM.
Still for that read-out and setting: with `Cc1ccc(C2CCNCC2)cc1C(=O)NC1(c2cccc3ccccc23)CC1` [Compound 407, 2-Methyl-N-(1-(naphthalen-1-yl)cyclopropyl)-5-(piperidin-4-yl)benzamide] the figure was < 100 nM; with `CCSc1cc(C2(NC(=O)c3cc(OCCN(C)C)ccc3C)CC2)c2ccccc2c1` [Compound 408, 5-(2-(Dimethylamino)ethoxy)-N-(1-(3-(ethylthio)naphthalen-1-yl)cyclopropyl)-2-methylbenzamide], < 100 nM; with `Cc1ccc(OCCN(C)C)cc1C(=O)NC1(c2cncc3ccccc23)CC1` [Compound 409, 5-(2-(Dimethylamino)ethoxy)-N-(1-(isoquinolin-4-yl)cyclopropyl)-2-methylbenzamide], < 100 nM.
